Key:
Assay type in all cases: cell-based
[1] = test system: Citrobacter diversus; assay: MIC against Gram-negative bacteria: Citrobacter diversus; settings: for MIC (μg/mL) C. diversus / MIC against C. diversus: 5×10^5 CFU/mL
Procedure, shortened: (§1)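 Purified recombinant human EGF domain proteins are tested by broth dilution in LB against a 5×10^5 CFU/mL inoculum, with two-fold serial dilutions run in triplicate. Plates are incubated at 37° C with shaking, and the MIC is read as the lowest protein concentration without growth.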

[2] = test system: Klebsiella pneumonia; assay: MIC against Gram-negative bacteria: Klebsiella pneumonia; settings: for MIC (μg/mL) K. pneumonia / MIC against K. pneumonia: 5×10^5 CFU/mL
Procedure, shortened: as §1

[3] = test system: Enterobacter cloacae; assay: MIC against Gram-negative bacteria: Enterobacter cloacae; settings: for MIC (μg/mL) E. cloacae / MIC against E. cloacae: 5×10^5 CFU/mL
Procedure, shortened: as §1

[4] = test system: Aeromonas hydrophila; assay: MIC against Gram-negative bacteria: Aeromonas hydrophila; settings: for MIC (μg/mL) A. hydrophila / MIC against A. hydrophila: 5×10^5 CFU/mL
Procedure, shortened: as §1

[5] = test system: Proteus vulgaris; assay: MIC against Gram-negative bacteria: Proteus vulgaris; settings: for MIC (μg/mL) P. vulgaris / MIC against P. vulgaris: 5×10^5 CFU/mL
Procedure, shortened: as §1

[6] = test system: E. coli BL21; assay: MIC against Gram-negative bacteria: E. coli BL21; settings: for MIC (μg/mL) E. coli BL21 / MIC against E. coli BL21: 5×10^5 CFU/mL
Procedure, shortened: as §1

[7] = test system: Proteus mirabilis; assay: MIC against Gram-negative bacteria: Proteus mirabilis; settings: for MIC (μg/mL) P. mirabilis / MIC against P. mirabilis: 5×10^5 CFU/mL
Procedure, shortened: as §1

[8] = test system: E. coli DH5α; assay: Antibacterial activity: MIC and growth curve against E. coli DH5α in 96-well plate; settings: minimal inhibitory concentration against E. coli DH5α; 96-well plate, 5×10^5 CFU/mL, 37° C., judged after 8 h
Procedure, shortened: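 MIC taken as lowest protein level with no bacterial growth, tracked by A600 every 30 min during 37 °C, 175 rpm culture. Two-fold protein series 50-12.5 μg/mL final, triplicate wells, against 5×10^5 CFU/mL of LB-washed mid-log cells.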

[9] = test system: Serratia marcescens; assay: MIC against Gram-negative bacteria: Serratia marcescens; settings: for MIC (μg/mL) S. marcescens / MIC against S. marcescens: 5×10^5 CFU/mL
Procedure, shortened: as §1

[10] = test system: Moraxella catarrhalis; assay: MIC against Gram-negative bacteria: Moraxella catarrhalis; settings: for MIC (μg/mL) M. catarrhalis / MIC against M. catarrhalis: 5×10^5 CFU/mL
Procedure, shortened: as §1

[11] = test system: Pseudomonas aeruginosa; assay: MIC against Gram-negative bacteria: Pseudomonas aeruginosa; settings: for MIC (μg/mL) P. aeruginosa / MIC against P. aeruginosa: 5×10^5 CFU/mL
Procedure, shortened: as §1

[12] = Citrobacter diversus, 96-well plate, 37° C., 10 h
[13] = Klebsiella pneumonia, 96-well plate, 37° C., 10 h
[14] = Enterobacter cloacae, 96-well plate, 37° C., 10 h
[15] = Aeromonas hydrophila, 96-well plate, 37° C., 10 h
[16] = Proteus vulgaris, 96-well plate, 37° C., 10 h
[17] = E. coli BL21, 96-well plate, 37° C., 10 h
[18] = Proteus mirabilis, 96-well plate, 37° C., 10 h
[19] = Serratia marcescens, 96-well plate, 37° C., 10 h
[20] = Moraxella catarrhalis, 96-well plate, 37° C., 10 h
[21] = Pseudomonas aeruginosa, 96-well plate, 37° C., 10 h
[22] = C. diversus, 10 h cultivation at 37° C.
[23] = K. pneumonia, 10 h cultivation at 37° C.
[24] = E. cloacae, 10 h cultivation at 37° C.
[25] = A. hydrophila, 10 h cultivation at 37° C.
[26] = P. vulgaris, 10 h cultivation at 37° C.
[27] = E. coli BL21, 10 h cultivation at 37° C.
[28] = P. mirabilis, 10 h cultivation at 37° C.
[29] = S. marcescens, 10 h cultivation at 37° C.
[30] = M. catarrhalis, 10 h cultivation at 37° C.
[31] = P. aeruginosa, 10 h cultivation at 37° C.

Question: How did the “MIC (μg/mL) C. diversus” value [1, 12] turn out when “PRT37 (IGVDCSDGFNGGCEQLCLQQMAPFPDDPTLYNILMFCGCIEDYKLGVDGRSCQ; listed as Homo sapiens)” was run?
Answer: The value was 25 µg/mL.

Question: And the “MIC (μg/mL) K. pneumonia” value [2, 13]?
Answer: The value was 25 µg/mL.

Question: What about the “MIC (μg/mL) E. cloacae” value [3, 14] of the same substance?
Answer: The value was 12.5 µg/mL.

Question: And the “MIC (μg/mL) A. hydrophila” value [4, 15]?
Answer: The value was 12.5 µg/mL.

Question: And the “MIC (μg/mL) P. vulgaris” value [5, 16]?
Answer: Its value is 25 µg/mL.

Question: And the “MIC (μg/mL) E. coli BL21” value [6, 17]?
Answer: The value was 50 µg/mL.

Question: And the “MIC (μg/mL) P. mirabilis” value [7, 18]?
Answer: Its value is 12.5 µg/mL.

Question: What about the MIC [8] of the same substance?
Answer: Its MIC is 25 µg/mL.

Question: What about the “MIC (μg/mL) S. marcescens” value [9, 19] of the same substance?
Answer: Its value is 12.5 µg/mL.

Question: And the “MIC (μg/mL) M. catarrhalis” value [10, 20]?
Answer: Its value is 12.5 µg/mL.

Question: What about the “MIC (μg/mL) P. aeruginosa” value [11, 21] of the same substance?
Answer: The value was 25 µg/mL.

Question: Which “MIC (μg/mL) C. diversus” value [1, 12] does the source give for “PRT1495 (KANCSTTCFNGGTCFYPGKCICPPGLEGE; listed as Homo sapiens)” here?
Answer: The value was 50 µg/mL.

Question: What about the “MIC (μg/mL) K. pneumonia” value [2, 13] of the same substance?
Answer: The value was 25 µg/mL.

Question: And the “MIC (μg/mL) E. cloacae” value [3, 14]?
Answer: Its value is 12.5 µg/mL.

Question: And the “MIC (μg/mL) A. hydrophila” value [4, 15]?
Answer: Its value is 12.5 µg/mL.

Question: What about the “MIC (μg/mL) P. vulgaris” value [5, 16] of the same substance?
Answer: The value was 25 µg/mL.

Question: What about the “MIC (μg/mL) E. coli BL21” value [6, 17] of the same substance?
Answer: The value was 12.5 µg/mL.

Question: What about the “MIC (μg/mL) P. mirabilis” value [7, 18] of the same substance?
Answer: Its value is 50 µg/mL.

Question: And the MIC [8]?
Answer: Its MIC is 25 µg/mL.

Question: And the “MIC (μg/mL) S. marcescens” value [9, 19]?
Answer: The value was 25 µg/mL.

Question: And the “MIC (μg/mL) M. catarrhalis” value [10, 20]?
Answer: The value was 50 µg/mL.

Question: What about the “MIC (μg/mL) P. aeruginosa” value [11, 21] of the same substance?
Answer: Its value is 25 µg/mL.

Question: Which results are given for “PRT527 (CPCPHTNSFATGCVVNGGDVRCSCKAGYTGTQCERCAPGYFGNPQKFGGSCQP; listed as Homo sapiens)”?
Answer: MIC against C. diversus ([1]; 96-well plate, 37° C., 10 h): 25 µg/mL; MIC against K. pneumonia ([2]; 96-well plate, 37° C., 10 h): 12.5 µg/mL; MIC against E. cloacae ([3]; 96-well plate, 37° C., 10 h): 25 µg/mL; MIC against A. hydrophila ([4]; 96-well plate, 37° C., 10 h): 50 µg/mL; MIC against P. vulgaris ([5]; 96-well plate, 37° C., 10 h): 50 µg/mL; MIC against E. coli BL21 ([6]; 96-well plate, 37° C., 10 h): 12.5 µg/mL; MIC against P. mirabilis ([7]; 96-well plate, 37° C., 10 h): 25 µg/mL; MIC [8]: 50 µg/mL; MIC against S. marcescens ([9]; 96-well plate, 37° C., 10 h): 25 µg/mL; MIC against M. catarrhalis ([10]; 96-well plate, 37° C., 10 h): 12.5 µg/mL; MIC against P. aeruginosa ([11]; 96-well plate, 37° C., 10 h): 50 µg/mL

Question: What does the source list for “PRT840 (GSARCGSGGPGSCPVPQECVPQDGAAGAGLCRCPQGWAGPHCR; listed as Homo sapiens)”?
Answer: MIC (μg/mL) C. diversus [1, 22]: 12.5 µg/mL; MIC (μg/mL) K. pneumonia [2, 23]: 25 µg/mL; MIC (μg/mL) E. cloacae [3, 24]: 12.5 µg/mL; MIC (μg/mL) A. hydrophila [4, 25]: 25 µg/mL; MIC (μg/mL) P. vulgaris [5, 26]: 25 µg/mL; MIC (μg/mL) E. coli BL21 [6, 27]: 12.5 µg/mL; MIC (μg/mL) P. mirabilis [7, 28]: 12.5 µg/mL; MIC [8]: 25 µg/mL; MIC (μg/mL) S. marcescens [9, 29]: 25 µg/mL; MIC (μg/mL) M. catarrhalis [10, 30]: 25 µg/mL; MIC (μg/mL) P. aeruginosa [11, 31]: 25 µg/mL

Question: For “PRT466 (RHTACLSSPCLNGGTCHLIVATGTTVCACPPGFAGRLCN; listed as Homo sapiens)”, which “MIC against C. diversus” value ([1]; 96-well plate, 37° C., 10 h) is on record?
Answer: The value was 12.5 µg/mL.

Question: And the “MIC against K. pneumonia” value ([2]; 96-well plate, 37° C., 10 h)?
Answer: Its value is 50 µg/mL.

Question: What about the “MIC against E. cloacae” value ([3]; 96-well plate, 37° C., 10 h) of the same substance?
Answer: Its value is 12.5 µg/mL.

Question: What about the “MIC against A. hydrophila” value ([4]; 96-well plate, 37° C., 10 h) of the same substance?
Answer: The value was 50 µg/mL.

Question: What about the “MIC against P. vulgaris” value ([5]; 96-well plate, 37° C., 10 h) of the same substance?
Answer: The value was 50 µg/mL.

Question: What about the “MIC against E. coli BL21” value ([6]; 96-well plate, 37° C., 10 h) of the same substance?
Answer: The value was 50 µg/mL.

Question: And the “MIC against P. mirabilis” value ([7]; 96-well plate, 37° C., 10 h)?
Answer: Its value is 12.5 µg/mL.

Question: What about the MIC [8] of the same substance?
Answer: The MIC was 12.5 µg/mL.

Question: What about the “MIC against S. marcescens” value ([9]; 96-well plate, 37° C., 10 h) of the same substance?
Answer: Its value is 12.5 µg/mL.

Question: And the “MIC against M. catarrhalis” value ([10]; 96-well plate, 37° C., 10 h)?
Answer: Its value is 50 µg/mL.

Question: And the “MIC against P. aeruginosa” value ([11]; 96-well plate, 37° C., 10 h)?
Answer: Its value is 12.5 µg/mL.

Question: Which results are given for “PRT766 (GKDQCAEGGHGCQHQCVNAWAMFHCTCNPGYKLAADNKSCL; listed as Homo sapiens)”?
Answer: MIC (μg/mL) C. diversus [1, 22]: 12.5 µg/mL; MIC (μg/mL) K. pneumonia [2, 23]: 12.5 µg/mL; MIC (μg/mL) E. cloacae [3, 24]: 50 µg/mL; MIC (μg/mL) A. hydrophila [4, 25]: 25 µg/mL; MIC (μg/mL) P. vulgaris [5, 26]: 25 µg/mL; MIC (μg/mL) E. coli BL21 [6, 27]: 50 µg/mL; MIC (μg/mL) P. mirabilis [7, 28]: 50 µg/mL; MIC [8]: 25 µg/mL; MIC (μg/mL) S. marcescens [9, 29]: 12.5 µg/mL; MIC (μg/mL) M. catarrhalis [10, 30]: 25 µg/mL; MIC (μg/mL) P. aeruginosa [11, 31]: 25 µg/mL

Question: How did the MIC [1, 22] turn out when “PRT981 (DINECRSGACHAAHTRDCLQDPGGGFRCLCHAGFSGPRCQ; listed as Homo sapiens)” was run?
Answer: The MIC was 25 µg/mL.

Question: What about the MIC [2, 23] of the same substance?
Answer: Its MIC is 12.5 µg/mL.

Question: And the MIC [3, 24]?
Answer: The MIC was 50 µg/mL.

Question: What about the MIC [4, 25] of the same substance?
Answer: The MIC was 12.5 µg/mL.

Question: And the MIC [5, 26]?
Answer: Its MIC is 50 µg/mL.

Question: What about the MIC [6, 27] of the same substance?
Answer: Its MIC is 12.5 µg/mL.

Question: And the MIC [7, 28]?
Answer: The MIC was 12.5 µg/mL.

Question: What about the MIC [8] of the same substance?
Answer: Its MIC is 25 µg/mL.

Question: And the MIC [9, 29]?
Answer: The MIC was 12.5 µg/mL.

Question: And the MIC [10, 30]?
Answer: Its MIC is 25 µg/mL.

Question: What about the MIC [11, 31] of the same substance?
Answer: Its MIC is 50 µg/mL.
